Reference: patent US10017509B2, “Macrocylic pyrimidine derivatives” (Janssen Pharmaceutica NV, priority 2014, dated 2018)

Experiments:
EF2K [1] = target: T1, EF2K (Homo sapiens, UniProt O00418); assay: Biochemical EF2K lysate-based kinase assay (AlphaLISA p-eEF2 Thr56); details: pIC50 = -log IC50 (M), read-out: eEF2K_C_alphalisa pIC50 (converted)
T1 construct: host or cells: LN-229 cell lysate
T1 sequence (O00418 1-725): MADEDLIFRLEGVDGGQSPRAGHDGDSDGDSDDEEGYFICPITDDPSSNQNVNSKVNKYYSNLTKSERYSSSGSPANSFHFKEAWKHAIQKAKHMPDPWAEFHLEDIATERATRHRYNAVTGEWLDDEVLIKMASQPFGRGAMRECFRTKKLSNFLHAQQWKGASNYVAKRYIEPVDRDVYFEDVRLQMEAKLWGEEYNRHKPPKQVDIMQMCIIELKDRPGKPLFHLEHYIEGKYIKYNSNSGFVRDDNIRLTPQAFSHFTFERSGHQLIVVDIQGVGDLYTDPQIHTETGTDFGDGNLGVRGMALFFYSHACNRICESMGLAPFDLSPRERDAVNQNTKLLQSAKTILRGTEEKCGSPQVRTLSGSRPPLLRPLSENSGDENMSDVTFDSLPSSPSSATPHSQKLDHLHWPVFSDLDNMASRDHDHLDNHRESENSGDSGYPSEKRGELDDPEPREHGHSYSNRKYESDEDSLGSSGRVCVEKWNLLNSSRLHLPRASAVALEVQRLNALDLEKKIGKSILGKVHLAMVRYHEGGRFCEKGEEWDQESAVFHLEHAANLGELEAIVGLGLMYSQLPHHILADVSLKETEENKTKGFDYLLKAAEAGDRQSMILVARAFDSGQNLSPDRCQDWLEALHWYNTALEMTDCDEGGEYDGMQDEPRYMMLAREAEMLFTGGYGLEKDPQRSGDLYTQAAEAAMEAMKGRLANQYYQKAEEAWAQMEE
Summary of the method: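 LN-229 glioblastoma lysate supplied both EF2K and eEF2 substrate; compound incubated 15 min at room temperature in pH 6.6 buffer with 10 mM Mg2+ and 10 mM ATP. EDTA-stopped; phospho-eEF2 Thr56 quantified by AlphaLISA sandwich, final read after overnight. Values as pIC50.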

[2] = target: Vps34 (PIK3C3 lipid kinase) (Homo sapiens, UniProt Q8NEB9); assay: Biochemical Vps34 lipid kinase assay (ADP-Glo); details: for IC50: serial half-log dilution 10 μM to 0.3 nM, pIC50 = -log IC50 (M); for remaining activity at 1 µM: 1 h, read-out: VPS34_1microM_% of cntrl
Summary of the method: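 ADP-Glo luminescence assay of PIK3C3 (7.6 nM) with 50 µM substrate and 20 µM ATP (apparent Km) in HEPES pH 7.5, 100 mM NaCl, 3 mM MnCl2, CHAPS, DTT; 60 min, 30 °C. Single dose 1 µM (residual activity vs DMSO) or half-log series 10 µM-0.3 nM giving pIC50.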

EF2K [3] = target: T1, EF2K; assay: EF2K cell-based assay (P-EF2 AlphaLISA, 2-deoxyglucose stimulated MCF10A cells); details: 2.5 mM 2-deoxyglucose stimulated, P-EF2 Thr56, pIC50 = -log IC50 (M), read-out: eEF2K_C_PThr56 pIC50 (converted)
Summary of the method: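 MCF10A cells, after 24 h culture, treated 1 h with compound then stimulated 4 h with 2.5 mM 2-deoxyglucose to activate AMPK. Lysates in M-PER with protease/phosphatase inhibitors assayed for P-EF2 by AlphaLISA; pIC50 = −log IC50 (M).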

[4] = single dose 1 μM compound, residual activity compared to control (DMSO)

Chain of Vps34 (PIK3C3 lipid kinase) (Q8NEB9 whole entry, species assumed): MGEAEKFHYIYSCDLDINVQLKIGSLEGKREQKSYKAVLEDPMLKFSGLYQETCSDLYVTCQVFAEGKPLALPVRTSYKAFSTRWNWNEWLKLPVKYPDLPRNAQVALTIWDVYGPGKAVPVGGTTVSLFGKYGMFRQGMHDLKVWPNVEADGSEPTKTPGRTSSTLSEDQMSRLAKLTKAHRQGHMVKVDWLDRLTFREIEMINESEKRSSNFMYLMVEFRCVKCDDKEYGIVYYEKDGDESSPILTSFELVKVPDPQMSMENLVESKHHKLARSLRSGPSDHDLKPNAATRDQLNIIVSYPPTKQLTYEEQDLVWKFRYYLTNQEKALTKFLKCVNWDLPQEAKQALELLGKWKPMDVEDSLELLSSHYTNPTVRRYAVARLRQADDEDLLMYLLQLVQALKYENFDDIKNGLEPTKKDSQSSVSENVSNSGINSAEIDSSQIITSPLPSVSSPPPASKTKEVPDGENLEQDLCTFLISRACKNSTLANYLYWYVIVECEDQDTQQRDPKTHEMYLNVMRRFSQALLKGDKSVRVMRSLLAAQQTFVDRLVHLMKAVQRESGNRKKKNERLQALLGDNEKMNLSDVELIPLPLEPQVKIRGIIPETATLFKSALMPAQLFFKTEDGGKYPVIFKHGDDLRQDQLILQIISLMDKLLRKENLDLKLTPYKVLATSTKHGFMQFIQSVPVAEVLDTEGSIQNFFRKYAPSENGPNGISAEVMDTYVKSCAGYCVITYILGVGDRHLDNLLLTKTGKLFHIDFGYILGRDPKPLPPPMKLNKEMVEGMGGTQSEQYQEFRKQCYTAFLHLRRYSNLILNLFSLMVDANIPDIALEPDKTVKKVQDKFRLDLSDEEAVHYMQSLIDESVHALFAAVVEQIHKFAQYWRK

IC50 (EF2K [1])	IC50 [2]	IC50 (EF2K [3])	remaining activity at 1 µM [2, 4]	VPS34_1microM_% of cntrl [2, 4]	SMILES
1.45e-07 M	8.91e-07 M	> 3.02e-05 M			COC(=O)C1CN2CCN1Cc1cccc(c1)Nc1nccc(n1)-c1ccc(nc1)N(C)CCCN(C)C(=O)C2 (centres unmarked) [Compound 55]
4.07e-06 M	1.26e-08 M	4.47e-06 M	3.19%		O=C1CN2CCCN(CC2)Cc2cccc(c2)Nc2nccc(n2)-c2ccc(nc2)NCCCN1 [Compound 56]
2.57e-06 M	2.95e-07 M	> 3.02e-05 M			CN1CCCN(C)c2ccc(cn2)-c2ccnc(n2)Nc2cccc(c2)CN2CCCN(CC2)CC1=O [Compound 57]
1.17e-07 M	4.27e-07 M	2.09e-06 M	15.9%		CC1CN2CCN1Cc1cccc(c1)Nc1nccc(n1)-c1ccc(nc1)N(C)CCCN(C)C(=O)C2 (centres unmarked) [Compound 58]
5.75e-07 M	3.89e-08 M	> 3.02e-05 M	3.56%		NC(=O)C1CN2CCN1Cc1cccc(c1)Nc1nccc(n1)-c1ccc(nc1)NCCCNC(=O)C2 (centres unmarked) [Compound 59]
1.78e-07 M	6.46e-08 M	2.75e-06 M	6.55%		CC1CN2CCN1Cc1cccc(c1)Nc1nccc(n1)-c1ccc(nc1)NCCCNC(=O)C2 (centres unmarked) [Compound 60]
2.4e-07 M	3.24e-07 M	> 3.02e-05 M	16.4%		CN1CCCN(C)c2ccc(cn2)-c2ccnc(n2)Nc2cccc(c2)CN2CCN(CC1=O)C(CCO)C2 (centres unmarked) [Compound 63]
7.24e-07 M		2.63e-05 M	64.6%		CN1CCCN(C)c2ccc(cn2)-c2ccnc(n2)Nc2cccc(c2)CN2CCN(CC2)C(c2ccccc2)C1=O (centres unmarked) [Compound 64]
1.66e-07 M	3.31e-07 M	5.62e-06 M	10.8%		O=C1NCCCNc2ccc(cn2)-c2ccnc(n2)Nc2cccc(c2)CN2CCN(CC2)C1CO (centres unmarked) [Compound 65]
7.76e-08 M	1.41e-07 M	4.17e-06 M	6.72%		COCC1C(=O)NCCCNc2ccc(cn2)-c2ccnc(n2)Nc2cccc(c2)CN2CCN1CC2 (centres unmarked) [Compound 66]
1.29e-07 M		3.89e-06 M	32.1%		CC1C(=O)N(C)CCCN(C)c2ccc(cn2)-c2ccnc(n2)Nc2cccc(c2)CN2CCN1CC2 (centres unmarked) [Compound 67]
6.03e-06 M	1.2e-08 M	> 3.02e-05 M	7.38%		O=C1CC2CN(CCN2)Cc2cccc(c2)Nc2nccc(n2)-c2ccc(nc2)NCCCN1 (centres unmarked) [Compound 70]
7.59e-06 M	1.74e-08 M	> 3.02e-05 M	12%		CN1CCN2Cc3cccc(c3)Nc3nccc(n3)-c3ccc(nc3)NCCCNC(=O)CC1C2 (centres unmarked) [Compound 71]
3.8e-06 M	3.02e-07 M	> 3.02e-05 M	11.5%		CN1CCN(C)c2ccc(cn2)-c2ccnc(n2)Nc2cccc(c2)CN2CCNC(CC1=O)C2 (centres unmarked) [Compound 72]
1.82e-06 M	4.07e-07 M	> 3.02e-05 M	19.6%		CN1CCN(C)c2ccc(cn2)-c2ccnc(n2)Nc2cccc(c2)CN2CCN(C)C(CC1=O)C2 (centres unmarked) [Compound 73]
> 3.02e-05 M	1.38e-06 M	> 3.02e-05 M	22.9%		CN1CCCN(C)c2ccc(cn2)-c2ccnc(n2)Nc2cccc(c2)CN2CCN(C)C(C2)C1=O (centres unmarked) [Compound 75]
2.09e-06 M	1.29e-07 M	> 3.02e-05 M	6.27%		O=C1CN2CCN(CC2=O)Cc2cccc(c2)Nc2nccc(n2)-c2ccc(nc2)NCCCN1 [Compound 77]
1.2e-06 M	1.32e-07 M	> 3.02e-05 M	7.48%		CN1CCCNC(=O)CN2CCN(CC2=O)Cc2cccc(c2)Nc2nccc(n2)-c2ccc1nc2 [Compound 78]
> 3.02e-05 M	6.03e-07 M	> 3.02e-05 M	24.3%		O=C1CC2CCN(CC2)Cc2cccc(c2)Nc2nccc(n2)-c2ccc(nc2)NCCCN1 [Compound 79]

IC50 (EF2K [1])	IC50 [2]	IC50 (EF2K [3])	remaining activity at 1 µM [2, 4]	VPS34_1microM_% of cntrl [2, 4]	SMILES
1.74e-07 M		5.5e-06 M		63.22 % of cntrl	O=C1CN2CCN(CC2)Cc2cccc(c2)Nc2nccc(n2)-c2ccc(nc2)N2CCCC2CN1 (centres unmarked) [Compound 80]
2.4e-06 M	8.91e-07 M	1.82e-05 M	26.4%		CN1CCCN(C)c2ccc(cn2)-c2ccnc(n2)Nc2cccc(c2)CN2CCC(CC2)CC1=O [Compound 81]
3.39e-07 M	4.07e-07 M	> 3.02e-05 M	10.8%		CN1CCCN(C)c2ccc(cn2)-c2ccnc(n2)Nc2cccc(c2)CN2CCN(CC1=O)C(=O)C2 [Compound 82]
1.78e-06 M	6.92e-08 M	> 3.02e-05 M	3.25%		CN1CCCN(C)c2ccc(cn2)-c2ccnc(n2)Nc2cccc(c2)CN2CCN(CC2)C(=O)C1 [Compound 83]
2.88e-07 M		8.71e-06 M	30.6%		CN1CCCN(C)c2ncc(cn2)-c2ccnc(n2)Nc2cccc(c2)CN2CCN(CC2)CC1=O [Compound 84]
2.69e-06 M		> 3.02e-05 M	47.6%		O=C1CN2CCN(CC2)Cc2cccc(c2)Nc2nccc(n2)-c2ccc(nc2)NC(=O)CCN1 [Compound 85]
8.91e-08 M		> 3.02e-05 M	38.3%		CN1CCCN(C)c2ccc(cc2)-c2ccnc(n2)Nc2cccc(c2)CN2CCN(CC1=O)C(C(=O)OCc1ccccc1)C2 (centres unmarked) [Compound 92]
1.51e-07 M	5.37e-07 M	2.24e-05 M	24.6%		COCC1CN2CCN1Cc1cccc(c1)Nc1nccc(n1)-c1ccc(nc1)N(C)CCCN(C)C(=O)C2 (centres unmarked) [Compound 97]
1.48e-07 M		2.75e-05 M	33.9%		CN1CCCN(C)c2ccc(cn2)-c2ccnc(n2)Nc2cccc(c2)CN2CCN(CC1=O)CC2COCCN1CCOCC1 (centres unmarked) [Compound 98]
1.7e-07 M	7.76e-07 M	2.04e-05 M	29.4%		COCCOCC1CN2CCN1Cc1cccc(c1)Nc1nccc(n1)-c1ccc(nc1)N(C)CCCN(C)C(=O)C2 (centres unmarked) [Compound 101]
1.95e-07 M	6.76e-07 M	1.86e-05 M	28.3%		CN1CCCN(C)c2ccc(cn2)-c2ccnc(n2)Nc2cccc(c2)CN2CCN(CC1=O)CC2COCCO (centres unmarked) [Compound 103]
3.02e-07 M		1.66e-05 M	36.3%		CN1CCN(CCOCC2CN3CCN2Cc2cccc(c2)Nc2nccc(n2)-c2ccc(nc2)N(C)CCCN(C)C(=O)C3)CC1 (centres unmarked) [Compound 106]
3.24e-07 M		> 3.02e-05 M	32.7%		CN1CCCN(C)c2ccc(cn2)-c2ccnc(n2)Nc2cccc(c2)CN2CCN(CC1=O)CC2COCCN1CCNCC1 (centres unmarked) [Compound 107]
2.09e-07 M	5.25e-07 M	2.45e-05 M	25.5%		CN(C)CCOCC1CN2CCN1Cc1cccc(c1)Nc1nccc(n1)-c1ccc(nc1)N(C)CCCN(C)C(=O)C2 (centres unmarked) [Compound 108]
1.35e-06 M	2.88e-07 M	> 3.02e-05 M	14.7%		CN1CCCN(C)c2ccc(cn2)-c2ccnc(n2)Nc2cccc(c2)CC2CCN(CC2)CC1=O [Compound 109]
1.48e-06 M	3.47e-07 M	> 3.02e-05 M	7.68%		CN1CCCN(C)c2ccc(cn2)-c2ccnc(n2)Nc2cccc(c2)N2CCN(CC2)CC1=O [Compound 110]
4.47e-06 M	1.7e-07 M	> 3.02e-05 M	1.43%		O=C1CNCCCNc2ccc(cn2)-c2ccnc(n2)Nc2cccc(c2)N2CCN1CC2 [Compound 111]
3.89e-06 M	6.03e-08 M	7.41e-06 M	6.25%		O=C1CNCCCNc2ccc(cn2)-c2ccnc(n2)Nc2cccc(c2)CN2CCN1CC2 [Compound 112]
